Experimental data: the supplement of paper PMC10307832

What was measured:
Test in all cases: relative viability (nuclei count vs DMSO), 5 days (fraction); higher = more cells survive
Zosuquidar + Linsitinib = compound: O[C@@H](COc1cccc2ncccc12)CN1CCN([C@@H]2c3ccccc3[C@@H]3[C@H](c4ccccc42)C3(F)F)CC1 [Zosuquidar] + C[C@]1(O)C[C@@H](c2nc(-c3ccc4ccc(-c5ccccc5)nc4c3)c3c(N)nccn32)C1 [Linsitinib] (partner 1 µM)
In short: (§1)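 Values are medians from duplicate plates. Each reflects relative viability, defined as the nuclei count of treated wells over that of vehicle wells. Lung cancer cell lines in 1536-well plates were pin-tool dosed one day after seeding with one drug alone or with a fixed anchor-drug dose plus five library-drug doses (not always all listed) in √10 steps, then fixed, stained and imaged at 4× after 5 days.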

[1] = compound: COc1cc2nccc(Oc3ccc(NC(=O)C4(C(=O)Nc5ccc(F)cc5)CC4)cc3)c2cc1OC [Cabozantinib] + O=C(CCCCCCC(=O)Nc1ccccc1)NO [Vorinostat] (partner 1 µM)
In short: as §1

[2] = compound: COc1cc2nccc(Oc3ccc(NC(=O)C4(C(=O)Nc5ccc(F)cc5)CC4)cc3)c2cc1OC [Cabozantinib] + CC(=O)c1c(C)c2cnc(Nc3ccc(N4CCNCC4)cn3)nc2n(C2CCCC2)c1=O [Palbociclib] (partner 0.5 µM)
In short: as §1

[3] = compound: COc1cc2nccc(Oc3ccc(NC(=O)C4(C(=O)Nc5ccc(F)cc5)CC4)cc3)c2cc1OC [Cabozantinib] + C[C@]1(O)C[C@@H](c2nc(-c3ccc4ccc(-c5ccccc5)nc4c3)c3c(N)nccn32)C1 [Linsitinib] (partner 1 µM)
In short: as §1

Work on NCI-H2405 yielded a relative viability (Zosuquidar + Linsitinib; first compound 0.01 µM) of 0.984, a relative viability (Zosuquidar + Linsitinib; first compound 0.03162 µM) of 0.878 and a relative viability (Zosuquidar + Linsitinib; first compound 0.1 µM) of 0.784. For the same cell line, the relative viability (Zosuquidar + Linsitinib; first compound 0.3162 µM) was 0.969, the relative viability (Zosuquidar + Linsitinib; first compound 1 µM) was 0.983 and the relative viability ([1]; first compound 0.02 µM) was 0.846. It also gave a relative viability ([1]; first compound 0.06325 µM) of 1.25, a relative viability ([1]; first compound 0.2 µM) of 1.01 and a relative viability ([1]; first compound 0.6325 µM) of 0.986. The relative viability ([1]; first compound 2 µM) was 1.07, the relative viability ([2]; first compound 0.02 µM) was 0.509 and the relative viability ([2]; first compound 0.06325 µM) was 0.568. The relative viability ([2]; first compound 0.2 µM) was 0.568, the relative viability ([2]; first compound 0.6325 µM) was 0.569 and the relative viability ([2]; first compound 2 µM) was 0.519. The relative viability ([3]; first compound 0.06325 µM) was 1.14, the relative viability ([3]; first compound 0.2 µM) was 0.905 and the relative viability ([3]; first compound 0.6325 µM) was 0.908. The relative viability ([3]; first compound 2 µM) was 0.852.
For SW 900, the relative viability ([1]; first compound 0.02 µM) was 0.521, the relative viability ([1]; first compound 0.06325 µM) was 0.678 and the relative viability ([1]; first compound 0.2 µM) was 0.411. The relative viability ([1]; first compound 0.6325 µM) was 0.515, the relative viability ([1]; first compound 2 µM) was 0.464 and the relative viability ([2]; first compound 0.02 µM) was 0.585. The relative viability ([2]; first compound 0.06325 µM) was 0.601, the relative viability ([2]; first compound 0.2 µM) was 0.436 and the relative viability ([2]; first compound 0.6325 µM) was 0.55. The relative viability ([2]; first compound 2 µM) was 0.492.
With NCI-H1563 the relative viability (Zosuquidar + Linsitinib; first compound 0.01 µM) was 1.22, the relative viability (Zosuquidar + Linsitinib; first compound 0.03162 µM) was 1.29 and the relative viability (Zosuquidar + Linsitinib; first compound 0.1 µM) was 1.13. For the same cell line, the relative viability (Zosuquidar + Linsitinib; first compound 0.3162 µM) was 1.2, the relative viability (Zosuquidar + Linsitinib; first compound 1 µM) was 1.26 and the relative viability ([3]; first compound 0.02 µM) was 0.853. It also gave a relative viability ([3]; first compound 0.06325 µM) of 1.3, a relative viability ([3]; first compound 0.2 µM) of 1.37 and a relative viability ([3]; first compound 0.6325 µM) of 1.11. For the same cell line, the relative viability ([3]; first compound 2 µM) was 0.957.
NCI-H1944 gave a relative viability (Zosuquidar + Linsitinib; first compound 0.01 µM) of 1.21, a relative viability (Zosuquidar + Linsitinib; first compound 0.03162 µM) of 1.17 and a relative viability (Zosuquidar + Linsitinib; first compound 0.1 µM) of 1.08. It also gave a relative viability (Zosuquidar + Linsitinib; first compound 0.3162 µM) of 1.09, a relative viability (Zosuquidar + Linsitinib; first compound 1 µM) of 1.17 and a relative viability ([1]; first compound 0.02 µM) of 0.615. For the same cell line, the relative viability ([1]; first compound 0.06325 µM) was 0.617, the relative viability ([1]; first compound 0.2 µM) was 0.527 and the relative viability ([1]; first compound 0.6325 µM) was 0.582. It also gave a relative viability ([1]; first compound 2 µM) of 0.637, a relative viability ([2]; first compound 0.02 µM) of 0.357 and a relative viability ([2]; first compound 0.06325 µM) of 0.315. It also gave a relative viability ([2]; first compound 0.2 µM) of 0.317, a relative viability ([2]; first compound 0.6325 µM) of 0.299 and a relative viability ([2]; first compound 2 µM) of 0.349. It also gave a relative viability ([3]; first compound 0.06325 µM) of 1.18, a relative viability ([3]; first compound 0.2 µM) of 1.09 and a relative viability ([3]; first compound 0.6325 µM) of 1.12. For the same cell line, the relative viability ([3]; first compound 2 µM) was 1.07.
NCI-H1650 gave a relative viability ([1]; first compound 0.02 µM) of 0.655, a relative viability ([1]; first compound 0.06325 µM) of 0.643 and a relative viability ([1]; first compound 0.2 µM) of 0.519. For the same cell line, the relative viability ([1]; first compound 0.6325 µM) was 0.586, the relative viability ([1]; first compound 2 µM) was 0.543 and the relative viability ([2]; first compound 0.02 µM) was 0.361. The relative viability ([2]; first compound 0.06325 µM) was 0.301, the relative viability ([2]; first compound 0.2 µM) was 0.27 and the relative viability ([2]; first compound 0.6325 µM) was 0.36. For the same cell line, the relative viability ([2]; first compound 2 µM) was 0.486.
Cell Line Calu-6 has a relative viability (Zosuquidar + Linsitinib; first compound 0.01 µM) of 0.905, a relative viability (Zosuquidar + Linsitinib; first compound 0.03162 µM) of 0.906 and a relative viability (Zosuquidar + Linsitinib; first compound 0.1 µM) of 0.901. The relative viability (Zosuquidar + Linsitinib; first compound 0.3162 µM) was 1.12, the relative viability (Zosuquidar + Linsitinib; first compound 1 µM) was 0.948 and the relative viability ([3]; first compound 0.02 µM) was 1.06. For the same cell line, the relative viability ([3]; first compound 0.06325 µM) was 0.975, the relative viability ([3]; first compound 0.2 µM) was 1.01 and the relative viability ([3]; first compound 0.6325 µM) was 0.871. It also gave a relative viability ([3]; first compound 2 µM) of 0.881.
Cell Line EBC-1 has a relative viability (Zosuquidar + Linsitinib; first compound 0.01 µM) of 0.956, a relative viability (Zosuquidar + Linsitinib; first compound 0.03162 µM) of 0.923 and a relative viability (Zosuquidar + Linsitinib; first compound 0.1 µM) of 0.747. For the same cell line, the relative viability (Zosuquidar + Linsitinib; first compound 0.3162 µM) was 1.16, the relative viability (Zosuquidar + Linsitinib; first compound 1 µM) was 0.845 and the relative viability ([3]; first compound 0.02 µM) was 1.04. The relative viability ([3]; first compound 0.06325 µM) was 0.942, the relative viability ([3]; first compound 0.2 µM) was 0.432 and the relative viability ([3]; first compound 0.6325 µM) was 0.121. For the same cell line, the relative viability ([3]; first compound 2 µM) was 0.116.
With NCI-H2342 the relative viability ([1]; first compound 0.02 µM) was 0.735, the relative viability ([1]; first compound 0.06325 µM) was 0.776 and the relative viability ([1]; first compound 0.2 µM) was 0.697. For the same cell line, the relative viability ([1]; first compound 0.6325 µM) was 0.798, the relative viability ([1]; first compound 2 µM) was 0.724 and the relative viability ([2]; first compound 0.02 µM) was 0.519. For the same cell line, the relative viability ([2]; first compound 0.06325 µM) was 0.466, the relative viability ([2]; first compound 0.2 µM) was 0.493 and the relative viability ([2]; first compound 0.6325 µM) was 0.501. The relative viability ([2]; first compound 2 µM) was 0.495.
Work on NCI-H1703 yielded a relative viability (Zosuquidar + Linsitinib; first compound 0.01 µM) of 1.13, a relative viability (Zosuquidar + Linsitinib; first compound 0.03162 µM) of 0.979 and a relative viability (Zosuquidar + Linsitinib; first compound 0.1 µM) of 0.543. It also gave a relative viability (Zosuquidar + Linsitinib; first compound 0.3162 µM) of 1.57, a relative viability (Zosuquidar + Linsitinib; first compound 1 µM) of 0.74 and a relative viability ([3]; first compound 0.02 µM) of 0.601. It also gave a relative viability ([3]; first compound 0.06325 µM) of 0.35, a relative viability ([3]; first compound 0.2 µM) of 0.287 and a relative viability ([3]; first compound 0.6325 µM) of 0.165. The relative viability ([3]; first compound 2 µM) was 0.146.
For ChaGo-K-1, the relative viability ([1]; first compound 0.02 µM) was 0.741, the relative viability ([1]; first compound 0.06325 µM) was 0.81 and the relative viability ([1]; first compound 0.2 µM) was 0.704. The relative viability ([1]; first compound 0.6325 µM) was 0.72, the relative viability ([1]; first compound 2 µM) was 0.772 and the relative viability ([2]; first compound 0.02 µM) was 1.05. For the same cell line, the relative viability ([2]; first compound 0.06325 µM) was 1.05, the relative viability ([2]; first compound 0.2 µM) was 0.906 and the relative viability ([2]; first compound 0.6325 µM) was 0.899. The relative viability ([2]; first compound 2 µM) was 0.871.
NCI-H1648 was tested, and the relative viability ([1]; first compound 0.02 µM) was 0.425, the relative viability ([1]; first compound 0.06325 µM) was 0.589 and the relative viability ([1]; first compound 0.6325 µM) was 0.55. It also gave a relative viability ([1]; first compound 2 µM) of 0.408, a relative viability ([2]; first compound 0.02 µM) of 0.27 and a relative viability ([2]; first compound 0.06325 µM) of 0.259. For the same cell line, the relative viability ([2]; first compound 0.6325 µM) was 0.281 and the relative viability ([2]; first compound 2 µM) was 0.299.
NCI-H522 showed a relative viability ([1]; first compound 0.02 µM) of 0.737, a relative viability ([1]; first compound 0.06325 µM) of 1.01 and a relative viability ([1]; first compound 0.2 µM) of 1.03. It also gave a relative viability ([1]; first compound 0.6325 µM) of 0.902, a relative viability ([1]; first compound 2 µM) of 0.902 and a relative viability ([2]; first compound 0.02 µM) of 0.885. It also gave a relative viability ([2]; first compound 0.06325 µM) of 0.966, a relative viability ([2]; first compound 0.2 µM) of 1.06 and a relative viability ([2]; first compound 0.6325 µM) of 1.12. It also gave a relative viability ([2]; first compound 2 µM) of 0.905.
A549 showed a relative viability (Zosuquidar + Linsitinib; first compound 0.01 µM) of 0.766, a relative viability (Zosuquidar + Linsitinib; first compound 0.03162 µM) of 0.571 and a relative viability (Zosuquidar + Linsitinib; first compound 0.1 µM) of 0.416. It also gave a relative viability (Zosuquidar + Linsitinib; first compound 0.3162 µM) of 0.53, a relative viability (Zosuquidar + Linsitinib; first compound 1 µM) of 0.564 and a relative viability ([3]; first compound 0.02 µM) of 0.621. The relative viability ([3]; first compound 0.06325 µM) was 0.641, the relative viability ([3]; first compound 0.2 µM) was 0.481 and the relative viability ([3]; first compound 0.6325 µM) was 0.534. The relative viability ([3]; first compound 2 µM) was 0.373.
With NCI-H596 the relative viability (Zosuquidar + Linsitinib; first compound 0.01 µM) was 1.03, the relative viability (Zosuquidar + Linsitinib; first compound 0.03162 µM) was 1.09 and the relative viability (Zosuquidar + Linsitinib; first compound 0.1 µM) was 1.03. The relative viability (Zosuquidar + Linsitinib; first compound 0.3162 µM) was 1.05, the relative viability (Zosuquidar + Linsitinib; first compound 1 µM) was 1.03 and the relative viability ([1]; first compound 0.02 µM) was 0.628. For the same cell line, the relative viability ([1]; first compound 0.06325 µM) was 0.812, the relative viability ([1]; first compound 0.2 µM) was 0.677 and the relative viability ([1]; first compound 0.6325 µM) was 1.5. For the same cell line, the relative viability ([1]; first compound 2 µM) was 0.6, the relative viability ([3]; first compound 0.02 µM) was 1.19 and the relative viability ([3]; first compound 0.06325 µM) was 1.17. The relative viability ([3]; first compound 0.2 µM) was 1.11, the relative viability ([3]; first compound 0.6325 µM) was 0.997 and the relative viability ([3]; first compound 2 µM) was 0.994.
